Our source for the IC50 and Efficacy values is patent US10370352B2, “Cyclobutyl-imidazolidinone compounds” (Eli Lilly and Company, priority 2017, dated 2019).

For assay [1], the target named is recombinant human ASK1 (hASK1) catalytic domain (Homo sapiens (Human), UniProt Q99683). Description: ASK1 enzymatic assay (ADP-Glo Kinase Assay). Format: biochemical. To be noted: for IC50: hASK1 0.25 nM, MKK6 300 nM, ATP 100 μM, mean ± standard deviation; for Efficacy: hASK1 enzymatic assay, standard benzamide ASK1 inhibitor = 100% inhibition, DMSO = 0%. From the text: The purpose of this assay is to determine the effect of ASK1 inhibitors on the production of ADP by ASK1. The recombinant human ASK1 (hASK1) catalytic domain tagged with Glutathione S-transferase is used, and histidine-tagged full-length human MAP kinase kinase 6 (MKK6) and ATP are the substrate and cofactor, respectively.
The assay is done using an ADP-Glo™ Kinase Assay Kit (Promega, Catalog #V9102) according to the manufacturer's protocol with the following modifications. Briefly, hASK1 (0.25 nM) and MKK6 (300 nM) in a buffer (10 mM MOPS pH 7.0; 10 mM Mg-Acetate; 1 mM DTT; 0.025% NP-40; 0.05% BSA; 1.5% glycerol) are incubated with ASK1 inhibitors at varying concentrations ranging from 10.00 μM to 0.17 nM for 15 minutes, followed by incubation with ATP (100 μM) for 30 minutes at room temperature. ADP-Glo™ Reagent is added to terminate the kinase reaction and deplete the remaining ATP. The Kinase Detection Reagent is then added to convert ADP to ATP. The newly synthesized ATP is measured using a luciferase/luciferin reaction, and the luminescence determined by Envision (PerkinElmer). The luminescence intensities are analyzed by GeneData, and fit to a 4 parameter dose response-inhibitor logistics curve to determine IC50 values, using the effects of 5-(4-cyclopropyl-1H-imidazol-1-yl)-2-fluoro-4-methyl-N-{6-[4-(propan-2-yl)-4H-1,2,4-triazol-3-yl]pyridin-2-yl}benzamide as a standard and DMSO vehicle for 100% and 0% inhibition, respectively.

The target in a further assay is human ASK1 (Homo sapiens (Human), UniProt Q99683). The experiment in a line: ASK1 autophosphorylation (Thr838) assay in HEK293 cells overexpressing human ASK1. Type of assay: cell-based. To be noted: for IC50: H2O2-stimulated (1 mM, 10 min) ASK1 autophosphorylation at Thr838, HEK293 cells, HTRF, mean ± standard deviation, read-out: HEK pASK1 IC50; for Efficacy: HEK pASK1 assay, standard benzamide ASK1 inhibitor = 100% inhibition, DMSO = 0%. Background: TR-FRET usually uses a lanthanide donor and a delayed reading to cut background.
Sequence of human ASK1 (Q99683 whole entry): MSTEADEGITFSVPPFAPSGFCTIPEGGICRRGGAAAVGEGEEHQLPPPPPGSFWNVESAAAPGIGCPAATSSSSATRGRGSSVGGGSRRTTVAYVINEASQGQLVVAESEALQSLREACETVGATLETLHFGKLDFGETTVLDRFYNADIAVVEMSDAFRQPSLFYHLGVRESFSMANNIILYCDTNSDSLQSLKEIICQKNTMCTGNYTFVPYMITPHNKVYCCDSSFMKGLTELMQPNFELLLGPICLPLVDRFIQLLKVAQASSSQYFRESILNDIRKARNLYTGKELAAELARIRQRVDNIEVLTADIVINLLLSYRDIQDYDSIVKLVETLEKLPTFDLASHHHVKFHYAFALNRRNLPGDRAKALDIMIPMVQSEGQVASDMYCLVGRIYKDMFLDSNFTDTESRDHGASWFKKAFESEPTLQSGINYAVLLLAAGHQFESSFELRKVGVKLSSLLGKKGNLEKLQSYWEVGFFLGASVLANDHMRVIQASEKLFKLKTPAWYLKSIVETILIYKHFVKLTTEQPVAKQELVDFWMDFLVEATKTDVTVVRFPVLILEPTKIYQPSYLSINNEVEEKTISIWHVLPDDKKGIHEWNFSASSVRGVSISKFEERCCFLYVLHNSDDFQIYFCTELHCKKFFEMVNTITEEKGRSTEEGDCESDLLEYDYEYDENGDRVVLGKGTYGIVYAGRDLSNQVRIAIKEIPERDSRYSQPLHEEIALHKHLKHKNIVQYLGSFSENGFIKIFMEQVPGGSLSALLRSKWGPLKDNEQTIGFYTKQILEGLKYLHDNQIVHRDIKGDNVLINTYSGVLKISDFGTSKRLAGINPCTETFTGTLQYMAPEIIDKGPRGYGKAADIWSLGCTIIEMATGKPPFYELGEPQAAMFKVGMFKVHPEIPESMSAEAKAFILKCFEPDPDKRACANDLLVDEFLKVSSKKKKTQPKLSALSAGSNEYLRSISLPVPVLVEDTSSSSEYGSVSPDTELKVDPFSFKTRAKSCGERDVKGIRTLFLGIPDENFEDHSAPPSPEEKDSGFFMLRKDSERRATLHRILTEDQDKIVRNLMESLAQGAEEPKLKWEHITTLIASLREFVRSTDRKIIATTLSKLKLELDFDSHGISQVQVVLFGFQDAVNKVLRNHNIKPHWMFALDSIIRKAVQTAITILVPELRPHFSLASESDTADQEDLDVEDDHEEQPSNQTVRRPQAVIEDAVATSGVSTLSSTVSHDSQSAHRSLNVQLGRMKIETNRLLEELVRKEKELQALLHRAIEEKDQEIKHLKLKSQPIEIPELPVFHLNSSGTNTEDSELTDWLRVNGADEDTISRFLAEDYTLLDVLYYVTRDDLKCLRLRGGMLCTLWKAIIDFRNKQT

Sequence of recombinant human ASK1 (hASK1) catalytic domain (Q99683 680-938): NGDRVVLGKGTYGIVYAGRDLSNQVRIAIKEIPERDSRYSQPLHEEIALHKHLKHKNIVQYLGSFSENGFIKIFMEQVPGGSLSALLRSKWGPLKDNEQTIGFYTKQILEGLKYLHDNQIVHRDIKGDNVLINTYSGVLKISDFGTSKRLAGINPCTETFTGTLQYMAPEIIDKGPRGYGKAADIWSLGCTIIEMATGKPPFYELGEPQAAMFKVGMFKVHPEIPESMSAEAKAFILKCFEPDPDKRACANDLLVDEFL

By IC50 is commonly meant the midpoint of a concentration-inhibition curve. For `CC(C)n1cnnc1-c1cccc(N2CCN(C3CC(n4cnc(C5CC5)c4)C3)C2=O)n1` (single isomer, unassigned) [Example 2, 1-[3-(4-Cyclopropylimidazol-1-yl)cyclobutyl]-3-[6-(4-isopropyl-1,2,4-triazol-3-yl)-2-pyridyl]imidazolidin-2-one], in assay [1], the IC50 turned out to be 1.47 ± 0.6 nM and the Efficacy is listed as 100%. For the same molecule, on human ASK1, the half-maximal inhibitory concentration (IC50) amounted to 48.8 ± 19.1 nM and the Efficacy is 105%.
Consider `CC(C)n1cnnc1-c1cccc(N2CCN(C3CC(n4cnc(C(F)(F)F)c4)C3)C2=O)n1` (stereo not drawn) [Example 3, 1-(6-(4-Isopropyl-4H-1,2,4-triazol-3-yl)pyridin-2-yl)-3-(3-(4-(trifluoromethyl)-1H-imidazol-1-yl)cyclobutyl)imidazolidin-2-one], for which, in assay [1], the concentration for half-maximal inhibition (IC50) was found to be 2.8 ± 0.97 nM and the Efficacy is recorded as 100%. In addition, on human ASK1, the IC50 was 126 nM and the Efficacy turned out to be 98.5%.
In the case of `CC(C)n1cnnc1-c1cccc(N2CCN(C3CC(n4cnc(C5CC5)n4)C3)C2=O)n1` (stereo not drawn) [Example 4, 1-[3-(3-Cyclopropyl-1,2,4-triazol-1-yl)cyclobutyl]-3-[6-(4-isopropyl-1,2,4-triazol-3-yl)-2-pyridyl]imidazolidin-2-one], in assay [1], the IC50 was determined as 2.56 ± 0.68 nM and the Efficacy is 100%. Besides, at human ASK1, the IC50 came out at 108 nM and the Efficacy was 99%.
Regarding `CC(C)n1cnnc1-c1cccc(N2CCN(C3CC(n4cnc(C(C)(C)C)c4)C3)C2=O)n1` (stereo not drawn) [Example 5, 1-(3-(4-(tert-Butyl)-1H-imidazol-1-yl)cyclobutyl)-3-(6-(4-isopropyl-4H-1,2,4-triazol-3-yl)pyridin-2-yl)imidazolidin-2-one], in assay [1], the half-inhibitory concentration (IC50) stood at 1.84 ± 0.64 nM and the Efficacy is 100%.
On to `Cc1ccc(C2CC(N3CCN(c4cccc(-c5nncn5C(C)C)n4)C3=O)C2)cn1` (single isomer, unassigned) [Example 8, 1-[6-(4-Isopropyl-1,2,4-triazol-3-yl)-2-pyridyl]-3-[3-(6-methyl-3-pyridyl)cyclobutyl]imidazolidin-2-one], for which, in assay [1], the IC50 is 5.26 ± 0.72 nM and the Efficacy was found to be 100%. Further, on human ASK1, the half-inhibitory concentration (IC50) is 235 nM and the Efficacy turned out to be 97.5%.
On to `CC(C)n1cc(C2CC(N3CCN(c4cccc(-c5nncn5C(C)C)n4)C3=O)C2)cn1` (stereo not drawn) [Example 6, 1-[3-(1-Isopropylpyrazol-4-yl)cyclobutyl]-3-[6-(4-isopropyl-1,2,4-triazol-3-yl)-2-pyridyl]imidazolidin-2-one], for which, in assay [1], the concentration for half-maximal inhibition (IC50) was determined as 2.17 ± 0.45 nM and the Efficacy was 100%. Besides, on human ASK1, the IC50 was determined as 27.1 nM and the Efficacy turned out to be 102%.
On to `Cc1ncc(C2CC(N3CCN(c4cccc(-c5nncn5C(C)C)n4)C3=O)C2)cn1` (single isomer, unassigned) [Example 9, 1-(6-(4-Isopropyl-4H-1,2,4-triazol-3-yl)pyridin-2-yl)-3-(3-(2-methylpyrimidin-5-yl)cyclobutyl)imidazolidin-2-one], for which, in assay [1], the IC50 came out at 6.21 ± 4.18 nM and the Efficacy is on record as 100%.
